Assay in all cases: biochemical
One test has as its target PLK1 (Homo sapiens, UniProt P53350). Details: University of Dundee kinase panel, per cent inhibition of phosphorylation at ATP Km. As to the method: The METi and RAFi were screened against kinase panels (SelectScreen, Invitrogen; University of Dundee, Division of Signal Transduction Therapy, UK; Upstate Biotechnology/Millipore, Billerica, MA). In these selectivity assays the concentration of ATP was set to the Km value of ATP for each kinase tested to allow for a relative potency comparison between the various kinases. The compounds were tested at 1 µM final concentration. […] (A) Kinase selectivity screen (KSS) performed at Upstate Biotechnology. […] (B) KSS performed at University of Dundee (Division of Signal Transduction Therapy). […] (PDF) Click here for additional data file. Supplementary file pone.0039653.s002.pdf: Figure S2 Kinase Selectivity Screen of RAFi. (A) Kinase selectivity screen (KSS) performed at University of Dundee (Division of Signal Transduction Therapy). Values in % inhibition of phosphorylation given 1 µM of RAFi compared to control. (B) KSS performed at Invitrogen (Selectscreen Service) compared to control. Values in % inhibition of phosphorylation given 1 µM of RAFi. (C) Cell based dose response kinase inhibition of indicated kinases by RAFi. (PDF) Click here for additional data file.

A further test addresses T1, AURB (Homo sapiens, UniProt Q96GD4).
T1 construct: gene AURKB
Details: University of Dundee kinase panel, percent inhibition of phosphorylation at 1 uM RAFi, ATP at Km. The conditions noted are these: read-out: Dundee KSS %inh at 1 uM. As to the method:
(§1) The METi and RAFi were screened against kinase panels (SelectScreen, Invitrogen; University of Dundee, Division of Signal Transduction Therapy, UK; Upstate Biotechnology/Millipore, Billerica, MA). In these selectivity assays the concentration of ATP was set to the Km value of ATP for each kinase tested to allow for a relative potency comparison between the various kinases. The compounds were tested at 1 µM final concentration. […] Supplementary file pone.0039653.s002.pdf: Figure S2 Kinase Selectivity Screen of RAFi. (A) Kinase selectivity screen (KSS) performed at University of Dundee (Division of Signal Transduction Therapy). Values in % inhibition of phosphorylation given 1 µM of RAFi compared to control. (B) KSS performed at Invitrogen (Selectscreen Service) compared to control. Values in % inhibition of phosphorylation given 1 µM of RAFi. (C) Cell based dose response kinase inhibition of indicated kinases by RAFi. (PDF) Click here for additional data file.

The next test deals with T2, CHK1 (Homo sapiens, UniProt O14757).
T2 construct: gene CHEK1
Details: University of Dundee kinase panel, percent inhibition of phosphorylation at 1 uM RAFi, ATP at Km. As to conditions: read-out: Dundee KSS %inh at 1 uM. As to the method: as §1

A further test addresses T3, ERK7 (Homo sapiens, UniProt Q8TD08).
T3 construct: gene MAPK15
Details: University of Dundee kinase panel, percent inhibition of phosphorylation at 1 uM RAFi, ATP at Km. The conditions noted are these: read-out: Dundee KSS %inh at 1 uM. As to the method: as §1

The target of another test is T4, MNK2 (Homo sapiens, UniProt Q9HBH9).
T4 construct: gene MKNK2
Details: University of Dundee kinase panel, percent inhibition of phosphorylation at 1 uM RAFi, ATP at Km. As to conditions: read-out: Dundee KSS %inh at 1 uM. As to the method:
as §1

Another test deals with T5, P70S6K (Homo sapiens, UniProt P23443).
T5 construct: gene RPS6KB1
T5 sequence (P23443 whole entry): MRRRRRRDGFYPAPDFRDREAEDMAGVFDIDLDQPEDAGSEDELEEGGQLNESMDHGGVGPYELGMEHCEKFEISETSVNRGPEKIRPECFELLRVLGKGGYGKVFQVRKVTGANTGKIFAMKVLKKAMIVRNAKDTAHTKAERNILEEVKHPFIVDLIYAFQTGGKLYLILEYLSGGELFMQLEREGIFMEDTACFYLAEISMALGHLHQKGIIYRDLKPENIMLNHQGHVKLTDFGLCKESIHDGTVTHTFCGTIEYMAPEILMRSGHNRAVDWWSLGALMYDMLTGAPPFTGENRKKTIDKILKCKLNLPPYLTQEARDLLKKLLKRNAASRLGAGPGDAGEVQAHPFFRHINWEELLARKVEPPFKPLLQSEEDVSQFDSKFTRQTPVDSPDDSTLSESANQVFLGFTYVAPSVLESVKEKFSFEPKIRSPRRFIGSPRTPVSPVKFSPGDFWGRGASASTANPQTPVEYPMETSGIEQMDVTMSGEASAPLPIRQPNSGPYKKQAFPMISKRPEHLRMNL
Details: University of Dundee kinase panel, percent inhibition of phosphorylation at 1 uM RAFi, ATP at Km. As to conditions: read-out: Dundee KSS %inh at 1 uM. As to the method:
as §1

Another test concerns the target T6, PKCa (Homo sapiens, UniProt P17252).
T6 construct: gene PRKCA
Details: University of Dundee kinase panel, percent inhibition of phosphorylation at 1 uM RAFi, ATP at Km. The conditions noted are these: read-out: Dundee KSS %inh at 1 uM. As to the method: as §1

The target of a further test is T7, PKD1 (Homo sapiens, UniProt Q15139).
T7 construct: gene PRKD1
T7 sequence (Q15139 whole entry): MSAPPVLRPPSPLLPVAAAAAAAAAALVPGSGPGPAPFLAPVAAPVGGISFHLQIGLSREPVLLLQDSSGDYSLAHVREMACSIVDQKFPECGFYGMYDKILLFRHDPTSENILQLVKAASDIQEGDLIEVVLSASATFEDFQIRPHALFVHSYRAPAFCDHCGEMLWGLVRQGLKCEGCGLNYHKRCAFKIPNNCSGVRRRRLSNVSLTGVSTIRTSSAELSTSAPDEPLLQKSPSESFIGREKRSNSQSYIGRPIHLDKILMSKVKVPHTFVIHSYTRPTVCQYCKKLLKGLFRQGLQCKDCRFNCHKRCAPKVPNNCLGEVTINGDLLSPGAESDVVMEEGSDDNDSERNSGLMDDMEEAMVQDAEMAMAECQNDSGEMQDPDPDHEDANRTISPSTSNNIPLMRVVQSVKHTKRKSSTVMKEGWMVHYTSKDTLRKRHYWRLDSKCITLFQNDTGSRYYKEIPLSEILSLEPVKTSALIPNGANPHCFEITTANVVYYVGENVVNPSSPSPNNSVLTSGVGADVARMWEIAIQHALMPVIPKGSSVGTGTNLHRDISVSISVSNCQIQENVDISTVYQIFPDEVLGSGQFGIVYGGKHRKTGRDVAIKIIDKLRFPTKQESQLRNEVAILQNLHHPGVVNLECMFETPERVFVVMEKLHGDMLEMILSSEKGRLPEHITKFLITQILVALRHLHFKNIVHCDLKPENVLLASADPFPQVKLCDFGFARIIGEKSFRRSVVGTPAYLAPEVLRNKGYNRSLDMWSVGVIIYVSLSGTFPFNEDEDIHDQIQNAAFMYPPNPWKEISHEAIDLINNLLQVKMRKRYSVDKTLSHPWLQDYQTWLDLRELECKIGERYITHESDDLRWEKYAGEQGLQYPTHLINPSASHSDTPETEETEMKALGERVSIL
Details: University of Dundee kinase panel, percent inhibition of phosphorylation at 1 uM RAFi, ATP at Km. As to conditions: read-out: Dundee KSS %inh at 1 uM. As to the method: as §1

The target of another test is T8, PLK1preactivated (Homo sapiens, UniProt P53350).
T8 construct: gene PLK1
T8 sequence (P53350 whole entry): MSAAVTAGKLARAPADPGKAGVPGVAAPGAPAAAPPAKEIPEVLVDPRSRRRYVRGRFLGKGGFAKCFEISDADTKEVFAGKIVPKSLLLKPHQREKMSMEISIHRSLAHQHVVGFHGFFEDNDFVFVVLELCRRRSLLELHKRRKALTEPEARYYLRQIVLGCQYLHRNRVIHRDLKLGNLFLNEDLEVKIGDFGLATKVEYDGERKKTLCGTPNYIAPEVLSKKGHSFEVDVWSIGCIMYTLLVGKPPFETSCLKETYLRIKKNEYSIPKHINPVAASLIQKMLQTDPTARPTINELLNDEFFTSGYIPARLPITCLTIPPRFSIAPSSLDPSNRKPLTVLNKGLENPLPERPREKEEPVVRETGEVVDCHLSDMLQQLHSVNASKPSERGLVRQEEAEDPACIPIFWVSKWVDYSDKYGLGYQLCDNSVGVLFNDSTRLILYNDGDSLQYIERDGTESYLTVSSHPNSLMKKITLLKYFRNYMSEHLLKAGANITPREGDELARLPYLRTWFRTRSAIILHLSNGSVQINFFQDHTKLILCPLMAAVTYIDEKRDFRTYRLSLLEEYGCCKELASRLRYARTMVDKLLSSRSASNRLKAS
Details: University of Dundee kinase panel, percent inhibition of phosphorylation at 1 uM RAFi, ATP at Km. The conditions noted are these: read-out: Dundee KSS %inh at 1 uM. As to the method: as §1

The target of a further test is chicken CSK (Gallus gallus, UniProt P41239). Details: University of Dundee kinase panel, percent inhibition of phosphorylation at 1 uM RAFi, ATP at Km. The conditions noted are these: read-out: Dundee KSS %inh at 1 uM. As to the method: as §1
The target in the next test is mouse LCK (Mus musculus, UniProt P06240). Details: University of Dundee kinase panel, percent inhibition of phosphorylation at 1 uM RAFi, ATP at Km. As to conditions: read-out: Dundee KSS %inh at 1 uM. As to the method: as §1
mouse LCK, sequence (P06240 whole entry): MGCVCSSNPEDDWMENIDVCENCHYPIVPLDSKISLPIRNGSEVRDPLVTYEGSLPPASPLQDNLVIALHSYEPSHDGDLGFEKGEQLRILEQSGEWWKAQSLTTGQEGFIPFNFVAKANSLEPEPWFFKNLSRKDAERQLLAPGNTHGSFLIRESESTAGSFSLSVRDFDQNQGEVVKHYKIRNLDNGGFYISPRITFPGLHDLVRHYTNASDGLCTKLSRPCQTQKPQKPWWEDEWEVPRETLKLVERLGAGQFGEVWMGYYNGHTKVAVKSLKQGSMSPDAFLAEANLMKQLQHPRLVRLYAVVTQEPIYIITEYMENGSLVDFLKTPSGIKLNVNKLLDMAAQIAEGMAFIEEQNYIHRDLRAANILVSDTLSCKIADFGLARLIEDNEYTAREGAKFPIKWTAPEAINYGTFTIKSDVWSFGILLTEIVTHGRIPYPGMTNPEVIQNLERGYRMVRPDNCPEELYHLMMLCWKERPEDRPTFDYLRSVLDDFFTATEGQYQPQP
In the next test the target is T9, rabbit MEK1 (Oryctolagus cuniculus, UniProt P29678).
T9 construct: gene MAP2K1
Details: University of Dundee kinase panel, percent inhibition of phosphorylation at 1 uM RAFi, ATP at Km. As to conditions: read-out: Dundee KSS %inh at 1 uM. As to the method:
as §1

A further test deals with T10, rat AMPKa2 (Rattus norvegicus, UniProt Q09137).
T10 construct: gene Prkaa2
T10 sequence (Q09137 whole entry): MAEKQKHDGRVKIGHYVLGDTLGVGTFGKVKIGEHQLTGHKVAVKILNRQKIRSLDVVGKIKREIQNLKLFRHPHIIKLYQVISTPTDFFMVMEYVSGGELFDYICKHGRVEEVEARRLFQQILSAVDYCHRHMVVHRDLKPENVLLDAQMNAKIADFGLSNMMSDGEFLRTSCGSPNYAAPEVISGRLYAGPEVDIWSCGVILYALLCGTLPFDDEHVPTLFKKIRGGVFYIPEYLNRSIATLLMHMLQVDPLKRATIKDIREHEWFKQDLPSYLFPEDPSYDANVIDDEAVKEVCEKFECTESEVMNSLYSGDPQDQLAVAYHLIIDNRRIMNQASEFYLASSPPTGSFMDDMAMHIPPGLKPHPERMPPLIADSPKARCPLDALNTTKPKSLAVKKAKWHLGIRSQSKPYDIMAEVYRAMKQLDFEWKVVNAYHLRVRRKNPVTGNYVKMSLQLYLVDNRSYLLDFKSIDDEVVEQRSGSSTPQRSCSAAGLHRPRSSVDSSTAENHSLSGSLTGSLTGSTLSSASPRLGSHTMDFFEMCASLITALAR
Details: University of Dundee kinase panel, percent inhibition of phosphorylation at 1 uM RAFi, ATP at Km. As to conditions: read-out: Dundee KSS %inh at 1 uM. As to the method:
as §1

The target of the next test is T11, rat ROCKII (Rattus norvegicus, UniProt Q62868).
T11 construct: gene Rock2
T11 sequence (Q62868 whole entry): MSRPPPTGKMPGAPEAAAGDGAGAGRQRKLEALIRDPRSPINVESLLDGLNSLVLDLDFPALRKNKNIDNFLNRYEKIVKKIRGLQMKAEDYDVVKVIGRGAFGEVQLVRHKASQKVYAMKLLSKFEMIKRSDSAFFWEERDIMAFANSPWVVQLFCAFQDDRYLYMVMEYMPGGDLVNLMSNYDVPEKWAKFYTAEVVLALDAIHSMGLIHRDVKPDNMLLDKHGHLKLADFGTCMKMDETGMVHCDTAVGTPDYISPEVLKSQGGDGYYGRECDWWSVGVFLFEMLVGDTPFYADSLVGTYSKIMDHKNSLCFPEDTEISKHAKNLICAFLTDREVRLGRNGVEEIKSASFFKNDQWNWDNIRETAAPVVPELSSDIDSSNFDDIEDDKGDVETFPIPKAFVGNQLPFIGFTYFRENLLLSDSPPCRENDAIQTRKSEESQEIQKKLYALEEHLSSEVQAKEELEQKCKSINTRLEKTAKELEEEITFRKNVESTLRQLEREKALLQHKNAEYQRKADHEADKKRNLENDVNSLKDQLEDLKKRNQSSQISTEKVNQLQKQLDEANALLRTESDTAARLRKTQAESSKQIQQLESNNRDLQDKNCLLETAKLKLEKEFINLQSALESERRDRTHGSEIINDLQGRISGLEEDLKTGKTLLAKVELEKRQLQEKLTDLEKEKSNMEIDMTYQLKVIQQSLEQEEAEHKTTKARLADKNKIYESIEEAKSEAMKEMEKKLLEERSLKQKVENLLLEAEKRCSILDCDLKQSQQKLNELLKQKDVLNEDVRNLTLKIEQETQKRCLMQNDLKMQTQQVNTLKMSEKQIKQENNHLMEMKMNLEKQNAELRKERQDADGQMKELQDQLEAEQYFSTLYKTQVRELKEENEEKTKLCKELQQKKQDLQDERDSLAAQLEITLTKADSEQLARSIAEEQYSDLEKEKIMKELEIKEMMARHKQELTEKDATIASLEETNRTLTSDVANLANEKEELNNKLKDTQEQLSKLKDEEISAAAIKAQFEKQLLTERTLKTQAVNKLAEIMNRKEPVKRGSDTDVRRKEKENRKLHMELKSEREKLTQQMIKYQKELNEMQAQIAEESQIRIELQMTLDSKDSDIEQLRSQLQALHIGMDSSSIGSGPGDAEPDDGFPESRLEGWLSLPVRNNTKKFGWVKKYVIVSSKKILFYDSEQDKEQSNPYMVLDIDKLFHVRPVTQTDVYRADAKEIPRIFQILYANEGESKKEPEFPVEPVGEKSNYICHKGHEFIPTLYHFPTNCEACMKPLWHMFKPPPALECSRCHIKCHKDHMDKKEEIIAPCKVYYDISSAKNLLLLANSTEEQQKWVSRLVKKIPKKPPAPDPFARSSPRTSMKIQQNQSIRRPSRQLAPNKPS
Details: University of Dundee kinase panel, percent inhibition of phosphorylation at 1 uM RAFi, ATP at Km. As to conditions: read-out: Dundee KSS %inh at 1 uM. As to the method:
as §1

SMILES strings stand for the structures.

PLK1, sequence (P53350 whole entry): as the sequence (P53350 whole entry) above
T1 sequence (Q96GD4 whole entry): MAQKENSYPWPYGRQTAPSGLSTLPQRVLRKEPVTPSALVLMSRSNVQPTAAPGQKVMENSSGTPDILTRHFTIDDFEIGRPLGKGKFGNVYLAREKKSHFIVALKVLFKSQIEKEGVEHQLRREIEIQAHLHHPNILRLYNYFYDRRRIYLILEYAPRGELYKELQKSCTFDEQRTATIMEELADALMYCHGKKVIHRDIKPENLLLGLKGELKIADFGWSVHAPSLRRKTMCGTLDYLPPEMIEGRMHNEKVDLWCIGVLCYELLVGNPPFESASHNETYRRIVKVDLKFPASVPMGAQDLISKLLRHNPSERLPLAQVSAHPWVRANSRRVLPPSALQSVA

For the molecule `OCCn1cc(-c2cnc3nnn(Cc4ccc5ncccc5c4)c3n2)cn1` [METi, PF-04217903], at PLK1 (inhibitor, Dundee KSS % inhibition at 1uM, 1 µM), the “Dundee KSS % inhibition at 1uM” value is 10.1%. In addition, on PLK1 (read-out: Dundee KSS % inhibition at 1uM), the inhibition at 1 µM is 13.6%.
Regarding `N#CCCNc1nccc(-c2cn(CC(F)F)nc2-c2cnc3[nH]ccc3c2)n1` [RAFi, PF-04880594], the inhibition at 1 µM on AURB was 16%; at CHK1 it was 2%; on ERK7, 16%; on MNK2, 12%; on P70S6K, -5%; on PKCa it was 53%. Moreover, the inhibition at 1 µM at PKD1 worked out at 47%; on PLK1preactivated it was 64%; on chicken CSK it was 27%; at mouse LCK it was 22%; on rabbit MEK1, 34%; at rat AMPKa2, 15%. For the same molecule, the inhibition at 1 µM at rat ROCKII came to 25%.

The record behind these values is PMC3382171 (PLoS ONE, 2012).
